Source: patent US7084268B1, “Carbapenem compound crystals and interjection preparations” (Eisai Co., Ltd., priority 1999, dated 2006)
Where a name gives a salt, the structure may show the parent alone.

Assay: Solubility in 62.5% (v/v) aqueous organic solvents, quantification in HPLC
Type: physicochemical
Settings: for solubility at 30 min: aqueous organic solvent, 20 °C, aqueous with cosolvent or surfactant or cyclodextrin, thermodynamic from solid
Experimental: The solubility of (+)-(1R,5S,6S)-6-[(R)-1-hydroxyethyl]-1-methyl-2-[(2S,4S)-2-[(3R)-pyrrolidine-3-yl-(R)-hydroxymethyl]pyrrolidine-4-yl]thio-1-carbapen-2-em-3-carboxylic acid monohydrochloride monohydrate and trihydrate in various aqueous organic solvents at a concentration of 62.5% (v/v) in water at 20° C. was determined by HPLC in the following manner.

C[C@@H](O)[C@H]1C(=O)N2C(C(=O)O)=C(S[C@@H]3CN[C@H]([C@H](O)[C@@H]4CCNC4)C3)[C@H](C)[C@H]12 [monohydrate, (+)-(1R,5S,6S)-6-[(R)-1-Hydroxyethyl]-1-methyl-2-[(2S,4S)-2-[(3R)-pyrrolidine-3-yl-(R)-hydroxymethyl]pyrrolidine-4-yl]thio-1-carbapen-2-em-3-carboxylic acid monohydrochloride monohydrate]
solubility (62.5% (v/v) diethylene glycol monoethyl ether in water, 20° C., 30 minutes, monohydrochloride monohydrate): 6560 µg/mL
solubility at 30 min (62.5% (v/v) 1-acetoxy-2-methyl ethane in water): 4180 µg/mL
solubility at 30 min (62.5% (v/v) 1-ethoxy-2-propanol in water): 5060 µg/mL
solubility at 30 min (62.5% (v/v) 1-methoxy-2-propanol in water): 4120 µg/mL
solubility at 30 min (62.5% (v/v) 2-butoxyethanol in water): 13300 µg/mL
solubility at 30 min (62.5% (v/v) 2-ethoxyethanol in water): 6740 µg/mL
solubility at 30 min (62.5% (v/v) 2-isopropoxyethanol in water): 6030 µg/mL
solubility at 30 min (62.5% (v/v) 2-methoxyethanol in water): 5370 µg/mL
solubility at 30 min (62.5% (v/v) 3-methoxy-3-methyl-1-butanol in water): 5930 µg/mL
solubility at 30 min (62.5% (v/v) 3-methoxybutanol in water): 4390 µg/mL
solubility at 30 min (62.5% (v/v) IPA (isopropyl alcohol) in water): 6310 µg/mL
solubility at 30 min (62.5% (v/v) acetonitrile in water): 15800 µg/mL
solubility at 30 min (62.5% (v/v) diethylene glycol monomethyl ether in water): 3930 µg/mL
solubility at 30 min (62.5% (v/v) dimethyl acetamide in water): 4060 µg/mL
solubility at 30 min (62.5% (v/v) dimethyl ether in water): 1930 µg/mL
solubility at 30 min (62.5% (v/v) dimethyl formamide in water): 5030 µg/mL
solubility at 30 min (62.5% (v/v) dimethyl sulfoxide in water): 7500 µg/mL
solubility at 30 min (62.5% (v/v) ethanol in water): 6600 µg/mL
solubility at 30 min (62.5% (v/v) methanol in water): 10200 µg/mL
solubility at 30 min (62.5% (v/v) n-propanol in water): 12300 µg/mL
solubility at 30 min (62.5% (v/v) t-butanol in water): 8650 µg/mL
solubility at 30 min (62.5% (v/v) tetrahydrofuran in water): 7220 µg/mL
solubility at 30 min (62.5% (v/v) triethylene glycol monomethyl ether in water): 2860 µg/mL
